Measured values reported in paper PMC6792352, “Limited Chemical Structural Diversity Found to Modulate Thyroid Hormone Receptor in the Tox21 Chemical Library” (Environmental Health Perspectives, 2019).
Counter-ions that a name gives are not always drawn.

Assay: in vitro
Settings: rat, gh3-tre-luc cells

Row | Structure (SMILES) | CC50 at 24 h (AC50 (uM) modified / 1000) [µM] | also measured
1 | O=C(OCc1ccccc1)c1ccccc1 [Benzyl benzoate] | > 90 | –
2 | CC(CO)(CO)C(=O)O [3-Hydroxy-2-(hydroxymethyl)-2-methylpropanoic acid] | > 90 | –
3 | Oc1ccc2c3c1O[C@H]1[C@@H](O)C=C[C@H]4[C@@H](C2)NCC[C@@]341 [N-Normorphine hydrochloride] | – | CC50 at 24 h (AC50 (uM) modified / 1000, Tox21_110001=Tox21_112862, viability, 1 nM T3 present, 24 h): > 100 µM
4 | Cc1ccccc1C=O [2-Tolualdehyde] | > 90 | –
5 | O=C1NCCN1c1ncc([N+](=O)[O-])s1 [Niridazole] | > 20 | –
6 | Cc1cccc(O)c1C [2,3-Dimethylphenol] | > 90 | –
7 | CCCCCCOc1cc(C)c(O)c(C)c1C [1-O-Hexyl-2,3,5-trimethylhydroquinone] | 42.6 | –
8 | O=S(=O)(O)c1cc(O)c(O)c(S(=O)(=O)O)c1 [Tiron] | > 90 | –
9 | CCC(=O)OCCC(C)CCC=C(C)C (centres unmarked) [Citronellyl propionate] | > 90 | –
10 | CCCC(=O)O [Butanoic acid] | > 100 | –
11 | CN1[C@@H]2CC[C@H]1CC(O)C2 (some centres unmarked) [Tropine] | – | CC50 at 24 h (AC50 (uM) modified / 1000, Tox21_110001=Tox21_202725, viability, 1 nM T3 present, 24 h): > 100 µM
12 | CC(CNC1CCCCC1)OC(=O)c1ccccc1 (centres unmarked) [Hexylcaine hydrochloride] | > 20 | –
13 | CCN(C)N=O [N-Nitroso-N-methylethylamine] | > 90 | –
14 | CC(=C(CCOC(=O)C(C)C)SSC(CCOC(=O)C(C)C)=C(C)N(C=O)Cc1cnc(C)nc1N)N(C=O)Cc1cnc(C)nc1N (stereo in doubt) [Bisibutiamine] | > 50 | –
15 | CCCCOC(=O)C(C)O (centres unmarked) [Butyl lactate] | > 90 | –
16 | CN1C[C@@H](NS(=O)(=O)N(C)C)C[C@@H]2c3cccc4c3c(cn4C)C[C@H]21 [Mesulergine] | 22.3 | –
17 | Nn1cnnc1 [4-Amino-1,2,4-triazole] | > 90 | –
18 | CC(C)c1ccc(O)cc1 [4-Isopropylphenol] | – | CC50 at 24 h (AC50 (uM) modified / 1000, Tox21_110001=Tox21_301323, viability, 1 nM T3 present, 24 h): > 90 µM
19 | C[C@]12C=CC(=O)C=C1CC[C@@H]1[C@@H]2CC[C@@]2(C)[C@H]1CC[C@]2(C)O [Methandrostenolone] | – | CC50 at 24 h (AC50 (uM) modified / 1000, Tox21_110001=Tox21_111647, viability, 1 nM T3 present, 24 h): > 50 µM
20 | O=C(O)c1ccc(CO)o1 [5-(Hydroxymethyl)-2-furoic acid] | > 90 | –
21 | CCC=O [Propanal] | > 90 | –
22 | CN1C(C)(C)CC(O)CC1(C)C [1,2,2,6,6-Pentamethylpiperidin-4-ol] | > 90 | –
23 | CCOC(=O)C(C)Oc1ccc(Oc2nc3ccc(Cl)cc3o2)cc1 (centres unmarked) [Fenoxaprop-ethyl] | > 90 | –

Row | Structure (SMILES) | CC50 at 24 h (AC50 (uM) modified / 1000) [µM] | also measured
24 | CC1(C)CCC(Cc2ccc(Cl)cc2)C1(O)Cn1cncn1 (centres unmarked) [Metconazole] | 82.6 | –
25 | CC(C)[C@@H](C)/C=C/[C@@H](C)[C@H]1CC[C@H]2/C(=C/C=C3\C[C@@H](O)CC[C@@H]3C)CCC[C@]12C [Dihydrotachysterol] | > 50 | –
26 | C=C(C#N)C(=O)OCC [Ethyl cyanoacrylate] | > 90 | –
27 | CC1CC(=O)CC(C)(C)C1 (centres unmarked) [3,3,5-Trimethylcyclohexanone] | > 90 | –
28 | CC(CCO)CCCC(C)(C)O (centres unmarked) [3,7-Dimethyloctane-1,7-diol] | > 90 | –
29 | Cn1c([N+](=O)[O-])cnc1COC(N)=O [Ronidazole] | > 50 | –
30 | C=COCC(C)C [Vinyl isobutyl ether] | > 100 | –
31 | COc1ccc([C@]2(C#N)CC[C@@H](C(=O)O)CC2)cc1OC1CCCC1 [Cilomilast] | > 50 | –
32 | O=C(O)CC(=O)O [Propanedioic acid] | > 90 | –
33 | O=C1CCCCCCCCCCCCCC1 [Cyclopentadecanone] | 60.9 | –
34 | CC(C)(O)C#CC(C)(C)O [2,5-Dimethyl-3-hexyne-2,5-diol] | > 90 | –
35 | Cc1cccc2sc(N)nc12 [2-Amino-4-methylbenzothiazole] | > 90 | –
36 | O=C(Cl)c1c(Cl)c(Cl)c(C(=O)Cl)c(Cl)c1Cl [2,3,5,6-Tetrachlorobenzene-1,4-dicarbonyl dichloride] | > 90 | –
37 | CCN(CC)CCNc1ccc(CO)c2sc3ccccc3c(=O)c12 [Hycanthone] | 2.88 | –
38 | O=C(O)CCCCCCCC(=O)O [Nonanedioic acid] | > 90 | –
39 | O=C1c2ccccc2C(=O)C1(O)O [Ninhydrin] | > 90 | –
40 | CC1(C)CC(N)CC(C)(CN)C1 (centres unmarked) [Isophorone diamine] | > 90 | –
41 | CCOC(=O)CC(=O)C(=O)OCC [Sodium diethyl oxaloacetate] | > 90 | –
42 | Cc1cc(C(C)(C)C)cc(C)c1CC1=NCCN1 [Xylometazoline hydrochloride] | > 20 | –
43 | COc1ccc(NC(C)=O)cc1N [N-(3-Amino-4-methoxyphenyl)acetamide] | > 90 | –
44 | CC1=C2C[C@H]3[C@@H](CC=C4C[C@@H](O)CC[C@@]43C)[C@@H]2CC[C@]12O[C@@H]1C[C@H](C)CN[C@H]1[C@H]2C [Cyclopamine] | 5.73 | –
45 | CN1CCCC1=O [N-Methyl-2-pyrrolidone] | > 90 | –
46 | COc1cc([C@H]2Oc3cc([C@H]4Oc5cc(O)cc(O)c5C(=O)[C@@H]4O)ccc3O[C@@H]2CO)ccc1O [Silybin] | > 90 | –

Row | Structure (SMILES) | CC50 at 24 h (AC50 (uM) modified / 1000) [µM] | also measured
47 | Cl[C@@H]1OCCO[C@H]1Cl [2,3-Dichloro-p-dioxane] | > 90 | –
48 | CC1=NNC(=O)N(/N=C/c2cccnc2)C1 [Pymetrozine] | > 90 | –
49 | C#C[C@]1(O)C=C[C@H]2[C@@H]3CCC4=CC(=O)CC[C@@H]4[C@H]3CC[C@@]21CC [Gestodene] | > 50 | –
50 | CCOc1ccc(/N=N/c2ccc(N)cc2N)cc1 [Ethoxazene] | > 50 | –
51 | CC(C)NCC(O)COc1ccc(CCOCC2CC2)cc1 (centres unmarked) [Betaxolol] | > 50 | –
52 | CCCCCCCC [Octane] | > 90 | –
53 | CCC(C)Br (centres unmarked) [2-Bromobutane] | – | CC50 at 24 h (AC50 (uM) modified / 1000, Tox21_110001=Tox21_200633, viability, 1 nM T3 present, 24 h): > 100 µM
54 | C[C@H]1C[C@H]2[C@@H]3CCC4=CC(=O)C=C[C@]4(C)[C@H]3C(=O)C[C@]2(C)[C@@]1(O)C(=O)CO [Meprednisone] | > 50 | –
55 | N#C/C=C/C#N [Fumaronitrile] | – | CC50 at 24 h (AC50 (uM) modified / 1000, Tox21_110001=Tox21_201151, viability, 1 nM T3 present, 24 h): 49.9 µM
56 | C[C@@H](CN1CC(=O)NC(=O)C1)N1CC(=O)NC(=O)C1 [Dexrazone] | > 50 | –
57 | COC(=O)[C@@H](N)Cc1ccc(O)c(O)c1 [Methyl L-DOPA hydrochloride] | 19.9 | –
58 | CN/C(=N/CCSCc1nc[nH]c1C)NC#N [Cimetidine] | > 90 | –
59 | CCCCCCCCCC(=O)OC [Methyl decanoate] | > 90 | –
60 | C=CC(C)(C)CC(=O)OC [Methyl 3,3-dimethylpent-4-enoate] | > 90 | –
61 | O=C1CCCCCN1 [Caprolactam] | > 90 | –
62 | ClC(Cl)(Br)Br [Dibromodichloromethane] | > 90 | –
63 | CCCCCCCCCC[N+](C)(CCCCCCCCCC)CCC[Si](OC)(OC)OC [Disiquonium chloride] | 25.6 | –
64 | CCCCCCCCCCCC[N+](C)(C)CC(=O)O [N-(Alkyl C10-C16)-N,N-dimethylglycine betaine] | 79.2 | –
65 | CCN(CC)c1ccc(C(=O)c2ccccc2C(=O)O)c(O)c1 [2-[4-(Diethylamino)-2-hydroxybenzoyl]benzoic acid] | > 90 | –
66 | CCCc1nc(C(C)(C)O)c(C(=O)OCc2oc(=O)oc2C)n1Cc1ccc(-c2ccccc2-c2nnn[nH]2)cc1 [Olmesartan medoxomil] | > 50 | –
67 | Nc1c(CC(=O)O)cccc1C(=O)c1ccccc1 [Amfenac sodium] | > 50 | –
68 | CNC(=N)NCCC[C@H](N)C(=O)O [Tilarginine acetate] | > 50 | –
69 | CCCCCCOC(=O)CC(CC(=O)OCCCCCC)(OC(=O)CCC)C(=O)OCCCCCC [Butyryl trihexyl citrate] | > 90 | –

Row | Structure (SMILES) | CC50 at 24 h (AC50 (uM) modified / 1000) [µM] | also measured
70 | CC(C)COC(=O)CC(C(=O)OCC(C)C)S(=O)(=O)O (centres unmarked) [Sodium 1,4-diisobutyl sulfosuccinate] | > 90 | –
71 | N#CCCCCC#N [Hexanedinitrile] | > 90 | –
72 | CN=C=O [Methyl isocyanate] | > 90 | –
73 | COc1cc(O)cc(O)c1 [Flamenol] | > 50 | –
74 | N#CCCl [Chloroacetonitrile] | > 100 | –
75 | C1CCC2(CCCCO2)OC1 [1,7-Dioxaspiro[5.5]undecane] | > 90 | –
76 | CC(=O)N[C@@H](CCC(=O)O)C(=O)O [N-Acetyl-L-glutamic acid] | > 50 | –
77 | CCCC(=O)Nc1ncnc2c1ncn2[C@@H]1O[C@@H]2COP(=O)(O)O[C@H]2[C@H]1OC(=O)CCC [Bucladesine] | > 50 | –
78 | OCCOCCN1CCN(C2=Nc3ccccc3Sc3ccccc32)CC1 [Quetiapine] | > 50 | –
79 | COC(=O)Nc1nc2ccc(C(=O)c3ccccc3)cc2[nH]1 [Mebendazole] | 0.337 | –
80 | CC(C)(C)c1ccc(C=O)cc1 [4-tert-Butylbenzaldehyde] | > 90 | –
81 | C[C@H](CSC(=O)c1ccccc1)C(=O)N1C[C@@H](Sc2ccccc2)C[C@H]1C(=O)O [Zofenopril] | > 50 | –
82 | CN1CCN(c2c(F)cc3c(=O)c(C(=O)O)cn4c3c2OCN4C)CC1 [Marbofloxacin] | > 50 | –
83 | C1CN2CCN1CC2 [1,4-Diazabicyclo[2.2.2]octane] | > 100 | –
84 | CCCCCC(=O)OCCc1ccccc1 [2-Phenylethyl hexanoate] | > 90 | –
85 | Cc1nc([N+](=O)[O-])cn1-c1ccc([N+](=O)[O-])cc1 [Nitrefazole] | > 50 | –
86 | O=C1c2ccccc2-c2ccccc21 [9-Fluorenone] | > 90 | –
87 | O=c1cccccc1O [Tropolone] | 22.1 | –
88 | CCCCc1nc(Cl)c(CO)n1Cc1ccc(-c2ccccc2-c2nn[nH]n2)cc1 [Losartan] | > 50 | –
89 | C[C@H](Cc1ccc(OCC(=O)O)cc1)NC[C@H](O)c1csc(C(F)(F)F)n1 [CP-114271] | > 90 | –
